Data taken from patent US9845297B2, “Antimicrobial compounds and methods of making and using the same” (Melinta Therapeutics, Inc., priority 2009, dated 2017).
Where two headings read alike, the source gives them in different places.

System: Eschericia coli strain ATCC25922
Assay: standard microdilution assay to determine minimum inhibitory concentrations (MICs)
Format: cell-based
Conditions: Escherichia coli
Description: Minimum inhibitory concentrations (MICs) are determined by the microdilution method, typically in a final volume of 100 microliters, according to protocols outlined by The Clinical and Laboratory Standards Institute [CLSI; formerly the National Committee for Clinical Laboratory Standards (NCCLS)]. See CLSI: Methods for dilution antimicrobial susceptibility tests for bacteria that grow aerobically; approved standard-fifth edition. Wayne, Pa.: NCCLS; 2000. The assays can be also be performed in microtiter trays according to conventional methodologies as published by the CLSI. See CLSI. Methods for Dilution Antimicrobial Susceptibility Tests for Bacteria That Grow Aerobically; Approved Standard-Seventh Edition. CLSI Document M7-A7 [ISBN 1-56238-587-9] CLSI, 940 West Valley Road, Suite 1400, Wayne Pa. 19087-1898 USA, 2006).
The compounds of the present invention were tested for antimicrobial activity. The compounds were run against Eschericia coli strain ATCC25922 using a standard microdilution assay to determine minimum inhibitory concentrations (MICs). […] A “N/A” means that data is unavailable. It will be recognized by one skilled in the art that the compounds can be assessed against other bacterial organisms and that the presentation of data for activity against Eschericia coli is illustrative and in no way is intended to limit the scope of the present invention. The compounds of the present invention can be assayed against a range of other microorganisms depending upon the performance activity desired to be gathered. Furthermore, the “+”, “−”, and “N/A” representation and the selection of a cutoff value of 16 micrograms/ml is also illustrative and in no way is intended to limit the scope of the present invention.

[1] = ATCC25922, Eschericia coli strain ATCC25922, standard microdilution assay, read-out: E. coli ATCC25922 MIC

MIC [1] [µg/mL] | SMILES | MIC (ATCC25922, read-out: E. coli ATCC25922 MIC) [µg/mL]
> 16 | N=C(N)NCCCN(CCCN)Cc1ccc(-c2c[nH]c(Nc3ccc(C(F)(F)F)cc3)nc2=O)cc1F [Compound 490] | –
> 16 | N=C(N)NCCCNCc1ccc(-c2c[nH]c(NC(=O)NC3CN(Cc4cc(F)c(F)cc4F)C3)nc2=O)cc1 [Compound 712] | –
> 16 | NCCCN(CCc1ccncc1)Cc1ccc(-c2c[nH]c(NC(=O)Nc3ccccc3OC(F)(F)F)nc2=O)cc1 [Compound 347] | –
> 16 | N=C(N)NCCCN(CCCN)Cc1ccc(-c2c[nH]c(NC(=O)Nc3cc(F)c(F)cc3F)nc2=O)cc1 [Compound 348] | –
< 16 | NCCCNCc1ccc(-c2c[nH]c(NC(=O)NCCCc3ccccc3OC(F)(F)F)nc2=O)cc1F [Compound 539] | –
> 16 | CN(C(=O)C[C@@H](N)CCCNC(=N)N)C1CNC(NC(N)=O)=NC1=O (stereo partly shown) [Compound 100] | –
< 16 | CC(C)=CCN(CCCN)Cc1ccc(-c2c[nH]c(NC(=O)Nc3cc(F)c(F)cc3F)nc2=O)cc1 [Compound 303] | –
> 16 | NCCN(CCN)CCCN1CC=C(n2ccc(NC(N)=O)nc2=O)CC1 [Compound 153] | –
> 16 | NCCCCCN1CCN(c2c[nH]c(Nc3nc4cc(F)c(F)cc4[nH]3)nc2=O)CC1 [Compound 541] | –
< 16 | NCCCNCc1ccc(-c2c[nH]c(Nc3nc4cc(F)c(F)cc4o3)nc2=O)cc1F [Compound 471] | –
> 16 | NCCCNCc1ccc(-c2c[nH]c(NC(=O)Nc3ccc(N4C(=O)C=CC4=O)cc3)nc2=O)cc1F [Compound 417] | –
< 16 | NCCCN(CCCN)Cc1ccc(-c2c[nH]c(Nc3nc4cc(F)c(F)cc4o3)nc2=O)cc1 [Compound 470] | –
> 16 | N=C(N)NCCCCN1CCCC(c2c[nH]c(NC(=O)Nc3ccccc3OC(F)(F)F)nc2=O)CC1 (stereo not shown) [Compound 525] | –
> 16 | N#CCCCN(CCCN)Cc1ccc(-c2c[nH]c(NC(=O)Nc3cc(F)c(F)cc3F)nc2=O)cc1 [Compound 443] | –
< 16 | NCCCNCc1ccc(-c2c[nH]c(NC(=O)Nc3cccc(Cl)c3Cl)nc2=O)cc1Cl [Compound 243] | –
> 16 | O=C(O)CCNCc1ccc(-c2c[nH]c(NC(=O)Nc3ccccc3OC(F)(F)F)nc2=O)cc1 [Compound 300] | –
< 16 | NCCCN(CCCN)Cc1ccc(-c2c[nH]c(NC(=O)Nc3ccccc3OC(F)(F)F)nc2=O)cc1 [Compound 256] | –
> 16 | CSCCNCc1ccc(-c2c[nH]c(NC(=O)Nc3ccccc3OC(F)(F)F)nc2=O)cc1Cl [Compound 260] | –
> 16 | NCCCNCc1ccc(-c2c[nH]c(NC(=O)Nc3ccc(OC(F)F)cc3)nc2=O)cc1C(F)(F)F [Compound 270] | –
> 16 | CSCCCNCc1ccc(-c2c[nH]c(NC(=O)Nc3cc(F)c(F)cc3F)nc2=O)cc1 [Compound 281] | –
< 16 | NCCCN(CCCN)Cc1ccc(-c2c[nH]c(Nc3nc4cc(F)c(F)cc4o3)nc2=O)cc1F [Compound 356] | –
> 16 | O=C(Nc1nc(=O)c(-c2ccc(CNCc3nccs3)cc2)c[nH]1)Nc1cc(F)c(F)cc1F [Compound 330] | –
> 16 | CN(C(=O)C[C@H](CCCNC(=N)N)NC(=O)CCN)C1CNC(NC(N)=O)=NC1=O (stereo partly shown) [Compound 103] | –
< 16 | NCCCN(CCCN)Cc1ccc(-c2c[nH]c(NC(=O)Nc3cccc(Cl)c3Cl)nc2=O)cc1F [Compound 307] | –
> 16 | NCCCNCc1ccc(-c2c[nH]c(NC(=O)Nc3cc(Cl)c(Cl)cc3Cl)nc2=O)cc1F [Compound 388] | –
< 16 | NCCCNCc1ccc(-c2c[nH]c(NC(=O)Nc3ccc(Cl)cc3F)nc2=O)cc1F [Compound 436] | –
> 16 | N=C(N)NCCCNCc1ccc(-c2c[nH]c(NC(=O)NCCc3ccccc3OC(F)(F)F)nc2=O)cc1F [Compound 513] | –
> 16 | NCCCN(CCCC(=O)O)Cc1ccc(-c2c[nH]c(NC(=O)Nc3ccccc3OC(F)(F)F)nc2=O)cc1 [Compound 359] | –

MIC [1] [µg/mL] | SMILES | MIC (ATCC25922, read-out: E. coli ATCC25922 MIC) [µg/mL]
– | CN(C(=O)C[C@H](CCCNC(=N)N)NC(=O)CCCO)C1CNC(NC(N)=O)=NC1=O (stereo partly shown) [Compound 101] | > 16
> 16 | N=C(N)NCCCCCN1CCC(c2c[nH]c(NC(=O)Nc3cccc(Cl)c3F)nc2=O)CC1 [Compound 583] | –
> 16 | NCCCCNC1CCN(c2c[nH]c(NC(=O)Nc3cc(F)c(F)cc3F)nc2=O)CC1 [Compound 619] | –
> 16 | NCCCNCc1ccc(-c2c[nH]c(NC(=O)Nc3ccc([N+](=O)[O-])cc3Cl)nc2=O)cc1F [Compound 494] | –
> 16 | NCCCCN1CCCC(c2c[nH]c(NC(=O)Nc3ccccc3OC(F)(F)F)nc2=O)CC1 (stereo not shown) [Compound 524] | –
> 16 | NCCCN[C@@H]1CCCCC1NC(=O)Nc1nc(=O)c(-c2ccc(CN)cc2)c[nH]1 (stereo partly shown) [Compound 1338] | –
> 16 | N=C(N)NCCCCCN1CCN(c2c[nH]c(NC(=O)Nc3cc(F)c(F)cc3F)nc2=O)CC1 [Compound 505] | –
> 16 | N=C(N)NCCCNCc1ccc(-c2c[nH]c(NC(=O)NC3CCN(Cc4cc(F)c(F)cc4F)CC3)nc2=O)cc1 [Compound 652] | –
> 16 | N=C(N)NCCCNCc1ccc(-c2c[nH]c(NC(=O)NCCCc3ccccc3OC(F)(F)F)nc2=O)cc1F [Compound 540] | –
< 16 | NCCCN(CCCN)Cc1ccc(-c2c[nH]c(NC(=O)Nc3ccc(C(F)(F)F)cc3)nc2=O)cc1 [Compound 172] | –
> 16 | NCCCN(CCCN)Cc1ccc(-c2c[nH]c(Nc3nc4cc(C(F)(F)F)cc(Cl)c4o3)nc2=O)cc1F [Compound 403] | –
< 16 | COc1ccc2nc(Nc3nc(=O)c(-c4ccc(CN(CCCN)CCCN)c(F)c4)c[nH]3)[nH]c2c1 [Compound 361] | –
> 16 | NCCCNCc1ccc(-c2c[nH]c(Nc3ccc(C(F)(F)F)cc3)nc2=O)cc1 [Compound 487] | –
> 16 | NCCCNCc1ccc(-n2ccc(N)nc2=O)cc1 [Compound 132] | –
> 16 | NCCCNCc1ccc(-n2ccc(NC(N)=O)nc2=O)cc1 [Compound 131] | –
> 16 | NCc1ccc(-c2c[nH]c(NC(=O)Nc3cc(F)c(F)cc3F)nc2=O)cc1 [Compound 238] | –
> 16 | Cn1ccnc1CNCc1ccc(-c2c[nH]c(NC(=O)Nc3ccccc3OC(F)(F)F)nc2=O)cc1 [Compound 290] | –
> 16 | NCCCN1CCC(c2c[nH]c(NC(=O)Nc3ccccc3OC(F)(F)F)nc2=O)CC1 [Compound 455] | –
> 16 | NCCCNCc1c(F)cc(-c2c[nH]c(NC(=O)Nc3cc(F)c(F)cc3F)nc2=O)cc1F [Compound 287] | –
> 16 | NCCCCN1CCC(c2c[nH]c(NC(=O)Nc3cc(F)c(F)cc3F)nc2=O)CC1 [Compound 535] | –
> 16 | NCCCN(CCCOC(=O)Nc1ccccc1OC(F)(F)F)Cc1ccc(-c2c[nH]c(NC(=O)Nc3ccccc3OC(F)(F)F)nc2=O)cc1 [Compound 305] | –
> 16 | O=C(Nc1nc(=O)c(CC(=O)N2CCNCC2)c[nH]1)Nc1ccccc1OC(F)(F)F [Compound 409] | –
> 16 | NCCCCN1CCC(c2c[nH]c(NC(=O)Nc3cccc(Cl)c3F)nc2=O)CC1 [Compound 536] | –
> 16 | NC(=O)Nc1ccn(CCC[C@@H](N)CCCO)c(=O)n1 [Compound 123] | –
> 16 | NCCCNCc1ccc(-c2c[nH]c(NC(=O)Nc3cccc([N+](=O)[O-])c3)nc2=O)cc1F [Compound 485] | –
> 16 | N#CCCCN(CCCN)Cc1ccc(-c2c[nH]c(NC(=O)Nc3ccccc3OC(F)(F)F)nc2=O)cc1 [Compound 398] | –
> 16 | NCCCN(CCCN)Cc1ccc(-c2c[nH]c(NC(=O)Nc3cc(F)c(F)cc3F)nc2=O)cc1 [Compound 178] | –
